pIC50: −log10 of the molar value.
Key:
PRKACA-DNAJB1 = molecular target: T1, PRKACA-DNAJB1 (Homo sapiens, UniProt P17612); experiment: PRKACA-DNAJB1 enzyme assay (EZ Reader 2 electrophoretic mobility shift); type: biochemical; details: read-out: Enz PRKACA-DNAJB1 IC50
T1 construct: DNAJB1 (fusion partner, P25685); the other entry of the earlier key: DNAJB1 (P25685, DnaJ homolog subfamily B member 1)
Experimental: (§1) A Perkin Elmer electrophoretic mobility shift platform (the EZ Reader 2) was used to assess the activity of test compounds against a kinase of interest. Fluorescently labeled substrate peptide was incubated in the presence of kinase, ATP, and the test compound, so that a portion of the peptide was phosphorylated by the enzyme. At the end of the reaction, the mix of phosphorylated (product) and non-phosphorylated (substrate) peptide containing solutions was passed through the microfluidic system of the Perkin Elmer EZ Reader 2 under an applied potential difference. The presence of the phosphate group on the product peptide provided a difference in mass and charge between those of the substrate peptide, resulting in a separation of the substrate and product pools in the sample. As the stopped solutions passed under the instrument's LED light the phosphorylated and un-phosphorylated fluorophore bound peptides were detected and resolved as separate peaks. The ratio between these peaks therefore reflected the test compound's impact on the kinase at that concentration in that well under those conditions.

PRKACA = molecular target: T2, PRKACA (Homo sapiens, UniProt P17612); experiment: PRKACA assay at Km (EZ Reader 2 electrophoretic mobility shift); type: biochemical; details: 5 μM ATP (Km), 1 μM Kemptide, 90 minutes at 25 C; read-out: Enz PRKACA IC50
T2 construct: purchased Millipore 539482
Experimental: as §1
PRKACA assay at Km: In each well of a 384-well plate, 0.007 ng/ul (0.18 nM) of PRKACA enzyme (Millipore: 539482) was incubated in a total of 12.5 μl of buffer (100 mM HEPES pH 7.5, 0.015% Brij 35, 10 mM MgCl2, 1 mM DTT) with 1 μM Kemptide peptide substrate (5-FAM-LRRASLG) (Anaspec 29933) and 5 μM ATP at 25 C for 90 minutes in the presence or absence of a dosed concentration series of test compounds (1% DMSO final concentration). The reaction was stopped by the addition of 80 μl of Stop buffer (100 mM HEPES pH 7.5, 0.015% Brij 35, 35 mM EDTA and 0.2% of Coating Reagent 3 (Perkin Elmer)). The plate was then read on the EZ Reader 2 (protocol settings: −2.0 psi, upstream voltage −700, downstream voltage −2700, post sample sip 60 seconds). Data was normalized to 0% and 100% inhibition controls and the IC50 calculated using a 4-parameter fit using GraphPad Prism.

[1] = tested on: PKA (phosphorylation of VASP on Serine 157); experiment: Cellular potency assay: P-VASP(157) HTRF in Forskolin-stimulated Huh7 cells; type: cell-based; details: Homo sapiens, Huh-7, 4 hours compound, 5 μM Forskolin 30 minutes, read-out: Phos VASP(S157) IC50
From the text: PKA directly phosphorylate VASP on Serine 157. Phosphorylation of VASP on Serine 157. P-VASP(157) was therefore used as a readout of PKA cellular activity. P-VASP(157) was detected with a HTRF assay, which is based on a TR-FRET sandwich immunoassay-based format comprising two specific anti-VASP antibodies following the manufactors protocol (Cisbio, Catalog No. 63ADK066PEH). PKA was activated in the assay by the addition of Forskolin (Sigma-Aldrich, Catalog No. F3917).
Dose response in Forskolin-stimulated human Huh7 cells was measured as follows. Briefly, Huh7 cells were plated at a density of 2×10^4 cells per well in a 384-well opti-well cell culture plate in 15 μl of serum- and phenol-free Dulbecco's Modified Eagle Medium (DMEM, Gibco Catalog No. 21063-029), and incubated for over night at 37° C., 5% CO2. The next day, 3 μl of a dosed concentration series of test compound (0.24%) DMSO final concentration) was added to the wells, and the cells were incubated for an additional 4 hours at 37° C., 5% CO2. 2 μl of Forskolin was added at a final concentration of 5 μM and the plates were incubated for 30 minutes at 37° C., 5% CO2. 5 μl of lysis buffer containing 1% HALT protease cocktail inhibitors (ThermoFisher, Catalog No. 78430), was added to the cells and the mixture was incubated under gentle shaking for 30 min at room temperature. 10 μl of this lysate was transferred to a 384-well proxi plate and 2.5 μL of the premixed antibody solution was added. An antibody solution was prepared by combining phopho-VASP cryptate antibody and phospho-VASP d2 antibody, at twenty-fold dilution into a buffer solution following the manufactors' protocol. The lysate and antibody mixture was incubated for either 3 h at room temperature or overnight at 4° C. The fluorescence emission at two different wavelengths (665 nm and 620 nm) was read on an EnVision instrument.

| SMILES | pIC50 (PRKACA-DNAJB1) | pIC50 (PRKACA) | pIC50 [1] |
| --- | --- | --- | --- |
| O=C(N[C@@H]1c2ccccc2C[C@@H]1CO)c1ccc(-c2ccnc3[nH]ccc23)cc1 (single isomer, unassigned) [Compound 108] | ≥ 9.00 | ≥ 9.00 | > 7.30 |
| O=C(N[C@H]1C[C@H](O)c2cccc(F)c21)c1ccc(-c2ccnc3[nH]ccc23)nc1 (single isomer, unassigned) [Compound 118] |  | ≥ 9.00 | 7.00 to 11.00 |
| C[C@@H]1c2cccc(F)c2[C@@H](NC(=O)c2ccc(-c3ccnc4[nH]ccc34)nc2)[C@H]1O (single isomer, unassigned) [Compound 122] |  | ≥ 9.00 | > 7.30 |
| O=C(N[C@H]1c2c(ccc(F)c2F)OC[C@H]1O)c1ccc(-c2ccnc3[nH]ccc23)nc1 (stereo in doubt) [Compound 140, N-[(3S,4S)-5,6-Difluoro-3-hydroxy-3,4-dihydro-2H-1-benzopyran-4-yl]-6-{1H-pyrrolo[2,3-b]pyridin-4-yl}pyridine-3-carboxamide] |  | ≥ 9.00 | 7.00 to 11.00 |
| O=C(N[C@H]1CCc2ccc(F)cc21)c1ccc(-c2ccnc3[nH]ccc23)nc1 [Compound 105, N-[(1S)-6-Fluoro-2,3-dihydro-1H-inden-1-yl]-6-{1H-pyrrolo[2,3-b]pyridin-4-yl}pyridine-3-carboxamide] |  | 8.30 to 9.00 | 7.00 to 11.00 |
| O=C(N[C@H]1CCc2cccc(F)c21)c1ccc(-c2ccnc3[nH]ccc23)nc1 [Compound 106] |  | ≥ 9.00 | 7.00 to 11.00 |
| O=C(N[C@@H]1c2ccccc2OC[C@H]1F)c1ccc(-c2ccnc3[nH]ccc23)cc1 [Compound 116, N-[(3S,4R)-3-Fluoro-3,4-dihydro-2H-1-benzopyran-4-yl]-4-{1H-pyrrolo[2,3-b]pyridin-4-yl}benzamide] |  | ≥ 9.00 | 7.00 to 11.00 |
| O=C(N[C@@H]1c2c(F)cccc2OC[C@@H]1O)c1ccc(-c2ccnc3[nH]ccc23)cc1 [Compound 124] |  | ≥ 9.00 | > 7.30 |
| O=C(N[C@@H]1c2c(ccc(F)c2F)C[C@@H]1O)c1ccc(-c2ccnc3[nH]ccc23)nc1 [Compound 132, N-[(1R,2S)-6,7-Difluoro-2-hydroxy-2,3-dihydro-1H-inden-1-yl]-6-{1H-pyrrolo[2,3-b]pyridin-4-yl}pyridine-3-carboxamide] |  | ≥ 9.00 | > 7.30 |
| O=C(N[C@@H]1c2ccccc2C[C@H]1N1CCC1)c1ccc(-c2ccnc3[nH]ccc23)nc1 [Compound 133] |  | 8.30 to 9.00 | 7.00 to 11.00 |
| C[C@H]1Oc2cccc(F)c2[C@@H](NC(=O)c2ccc(-c3ccnc4[nH]ccc34)nc2)[C@@H]1O [Compound 137] |  | ≥ 9.00 | 7.00 to 11.00 |
| Cc1c[nH]c2nccc(-c3ccc(C(=O)N[C@H]4CCOc5cc(F)cc(F)c54)cn3)c12 [Compound 138] |  | ≥ 9.00 | 7.00 to 11.00 |
| O=C(N[C@H]1CCOc2ccc(Cl)c(F)c21)c1ccc(-c2ccnc3[nH]ccc23)nc1 [Compound 143] |  | ≥ 9.00 | > 7.30 |
| CC1CN([C@@H]2Cc3ccccc3[C@H]2NC(=O)c2ccc(-c3ccnc4[nH]ccc34)nc2)C1 [Compound 145] |  | ≥ 9.00 | 7.00 to 11.00 |
| CCN(CC)[C@@H]1Cc2ccccc2[C@H]1NC(=O)c1ccc(-c2ccnc3[nH]ccc23)nc1 [Compound 147] |  | 8.30 to 9.00 | > 7.30 |
| C[C@H]1Oc2ccc(F)c(F)c2[C@@H](NC(=O)c2ccc(-c3ccnc4[nH]ccc34)nc2)[C@@H]1O [Compound 149] |  | ≥ 9.00 | > 7.30 |
| Cc1cccc2c1[C@@H](NC(=O)c1ccc(-c3ccnc4[nH]ccc34)nc1)[C@H](N1CCCC1)C2 [Compound 153] |  | ≥ 9.00 | 7.00 to 11.00 |
| O=C(N[C@H]1C[C@H](O)c2cc(C(F)F)cc(F)c21)c1ccc(-c2ccnc3[nH]ccc23)nc1 [Compound 155] |  | ≥ 9.00 | > 7.30 |

| SMILES | pIC50 (PRKACA-DNAJB1) | pIC50 (PRKACA) | pIC50 [1] |
| --- | --- | --- | --- |
| O=C(N[C@H]1C[C@@H](O)c2cc(C(F)F)cc(F)c21)c1ccc(-c2ccnc3[nH]ccc23)nc1 [Compound 156] |  | ≥ 9.00 | > 7.30 |
| O=C(N[C@@H]1c2ccccc2C[C@H]1N1CC[C@H](F)C1)c1ccc(-c2ccnc3[nH]ccc23)nc1 [Compound 158] |  | ≥ 9.00 | 7.00 to 11.00 |
| CO[C@@H]1CCN([C@@H]2Cc3ccccc3[C@H]2NC(=O)c2ccc(-c3ccnc4[nH]ccc34)nc2)C1 [Compound 163] |  | ≥ 9.00 | 7.00 to 11.00 |
| O=C(N[C@@H]1c2c(F)cc(C(F)F)cc2OC[C@@H]1O)c1ccc(-c2ccnc3[nH]ccc23)nc1 [Compound 164] |  | ≥ 9.00 | > 7.30 |
| Cc1c[nH]c2nccc(-c3ccc(C(=O)N[C@@H]4c5c(F)cccc5C[C@H]4N4CC(C)C4)cn3)c12 [Compound 166] |  | ≥ 9.00 | 7.00 to 11.00 |
| O=C(N[C@@H]1c2c(Cl)cccc2C[C@H]1N1CCCC1)c1ccc(-c2ccnc3[nH]ccc23)nc1 [Compound 168] |  | ≥ 9.00 | > 7.30 |
| Cc1c[nH]c2nccc(-c3ccc(C(=O)N[C@@H]4c5c(Cl)cccc5C[C@H]4N4CCCC4)cn3)c12 [Compound 174] |  | ≥ 9.00 | > 7.30 |
| O=C(N[C@@H]1c2c(ccc(F)c2Cl)C[C@H]1N1CCCC1)c1ccc(-c2ccnc3[nH]ccc23)nc1 [Compound 177] |  | ≥ 9.00 | > 7.30 |
| O=C(N[C@@H]1c2c(Cl)cccc2C[C@H]1N1CC[C@H](F)C1)c1ccc(-c2ccnc3[nH]ccc23)nc1 [Compound 178] |  | ≥ 9.00 | > 7.30 |
| O=C(N[C@@H]1c2c(ccc(F)c2F)C[C@H]1N1CCCC1)c1ccc(-c2ccnc3[nH]cc(F)c23)nc1 [Compound 179] |  | ≥ 9.00 | > 7.30 |
| Cc1c[nH]c2nccc(-c3ccc(C(=O)N[C@@H]4c5c(ccc(F)c5Cl)C[C@H]4N4CCCC4)cn3)c12 [Compound 181] |  | ≥ 9.00 | > 7.30 |
| Cc1c[nH]c2nccc(-c3ccc(C(=O)N[C@@H]4c5c(Cl)cccc5C[C@H]4N4CC[C@H](F)C4)cn3)c12 [Compound 182] |  | ≥ 9.00 | 7.00 to 11.00 |
| O=C(N[C@@H]1c2ccc(C(F)F)cc2C[C@H]1N1CC[C@H](F)C1)c1ccc(-c2ccnc3[nH]ccc23)nc1 [Compound 183] |  | 8.30 to 9.00 | 7.00 to 11.00 |
| O=C(N[C@@H]1c2c(Cl)cccc2C[C@H]1N1C[C@@H](O)[C@H](F)C1)c1ccc(-c2ccnc3[nH]ccc23)nc1 [Compound 184] |  | 8.30 to 9.00 |  |
| O=C(N[C@@H]1c2c(Cl)cccc2C[C@H]1N1C[C@@H](O)[C@@H](F)C1)c1ccc(-c2ccnc3[nH]ccc23)nc1 [Compound 187] |  | 8.30 to 9.00 | < 7.00 |
| CN(C)C(=O)[C@H]1N([C@@H]2Cc3cccc(Cl)c3[C@H]2NC(=O)c2ccc(-c3ccnc4[nH]ccc34)nc2)CC1(C)C [Compound 192, N-[(1R,2R)-7-Chloro-2-[(2S)-2-(dimethylcarbamoyl)-3,3-dimethylazetidin-1-yl]-2,3-dihydro-1H-inden-1-yl]-6-{1H-pyrrolo[2,3-b]pyridin-4-yl}pyridine-3-carboxamide] |  | ≥ 9.00 | > 7.30 |
| CN(C)C(=O)[C@H]1N([C@@H]2Cc3cccc(Cl)c3[C@H]2NC(=O)c2ccc(-c3ccnc4[nH]ccc34)cn2)CC1(C)C [Compound 193] |  | ≥ 9.00 | > 7.30 |

Reference: patent US12583856B2, “Inhibitors of protein kinase A” (Blueprint Medicines Corporation, priority 2021, dated 2026)
